# Experimental data published in PMC10470178, “Long-acting lenacapavir protects macaques against intravenous challenge with simian-tropic HIV” (eBioMedicine, 2023).
# Like-named read-outs stand apart in the source and are kept apart here.
# What was measured:
# [1] = format: in vivo, pigtail macaques (Macaca nemestrina)
# Description: Sixteen male, purpose-bred pigtail macaques (Macaca nemestrina; ages 4.6–8.5 years at the time of study initiation) were housed at NIH-Bethesda (Supplementary Table S1). All study animals received enrofloxacin (10 mg/kg, administered orally, once per day for 10 days), paromomycin (25 mg/kg, administered orally, twice daily for 7–10 days), and fenbendazole (50 mg/kg administered orally, once per day for 5 days) two weeks to 43 months prior to study initiation. Lenacapavir or drug vehicle (sterile, preservative-free 57.5% w/v polyethylene glycol 300 in water) doses were administered to sedated animals via SC injection into the scapular region such that no more than 2 ml of solution was injected into a single SC site. Animals in the LEN pharmacokinetic evaluation study (N = 6) each received two doses of LEN, both at 15 mg/kg (N = 3) or at 50 mg/kg (N = 3), 6 weeks apart. Animals in the virus challenge experiment each received a single dose of LEN at 25 mg/kg (N = 3, LEN PrEP group) or drug vehicle (N = 4, vehicle control group) 30 days prior to stHIV-A19 challenge, or a cART regimen consisting of tenofovir disoproxil fumarate (TDF), emtricitabine (FTC), and dolutegravir (DTG) (N = 3, TDF/FTC/DTG group), coformulated and administered as previously described[29]^,[30] for 7 days beginning 3 days prior to stHIV-A19 challenge (Supplementary Figure S1). Hair was clipped and skin marked at LEN and vehicle injection sites to allow for subsequent visual and manual assessment and scoring of potential ISRs by non-blinded veterinary care staff. Complete blood counts (CBC) and serum chemistries were monitored prior to and at 2- to 4-week intervals after LEN administration for at least one year. Following the first dose of LEN in the PK study, one animal in the 50-mg/kg dosing group received 7 consecutive days of daily ketoprofen (2 mg/kg) administered intramuscularly for ISR analgesia at veterinary discretion. For the second dose of LEN in the PK study, all animals in the 50-mg/kg dosing group received 5–7 consecutive days of twice daily oral carprofen (2 mg/kg) analgesia administered prophylactically starting on the day of LEN dosing. In the IV challenge PrEP study, all LEN and vehicle control animals received 3–5 consecutive days of twice daily oral carprofen (2 mg/kg) analgesia administered prophylactically starting on the day of injection. For virus challenge, PrEP study animals each received 1 × 10^5 infectious units of stHIV-A19 injected intravenously. After LEN washout, LEN PrEP group animals received a single 50-mg/kg dose of rhesusized depleting anti-CD8α antibody (MT807R1, RRID: AB_2716320, NIH Nonhuman Primate Reagent Resource), administered SC to anesthetized animals.
# SIVmac239 = experiment: Multi-round viral replication assay in SupT1-CCR5 cells, SIVmac239; format: cell-based, SIV
# Description: Infectious stocks of stHIV-A19,[23] HIV-1 NL4-3, and SIVmac239 were produced in HEK-293T (RRID: CVCL_1926) cells transfected with full-length viral genome plasmids using the TransIT HEK-293 transfection reagent (Mirus Bio) according to the manufacturer’s instructions. Virus stock infectious titres were determined on TZM-bl reporter cells (RRID: CVCL_B478) as previously described.[26] For experiments using SupT1-CCR5 target cells (RRID: CVCL_X633),[27] cultures were maintained in RPMI 1640 medium supplemented with 10% foetal bovine serum (FBS), 2 mM glutamine, 100 U/ml penicillin, and 100 μg/ml streptomycin. […] Cells were then washed three times to remove input virus, counted, and cultured in triplicate in growth media containing serial threefold dilutions of LEN or no LEN (control). […] Culture supernatants were collected 7 days post-inoculation, clarified by centrifugation, and stored at −80 °C for later quantification of vRNA by quantitative reverse transcription polymerase chain reaction (qRT-PCR). […] The stHIV-A19 stock was quantified with a SYBR Green-based qPCR-based product-enhanced RT (PERT) assay using a purified reverse transcriptase (RT) protein standard, as previously described.[28] […] After 7 days, the virus in culture supernatants was quantified using the PERT assay. […]
compound,measurement,setting,value
"CC(C)(C#Cc1ccc(-c2ccc(Cl)c3c(NS(C)(=O)=O)nn(CC(F)(F)F)c23)c([C@H](Cc2cc(F)cc(F)c2)NC(=O)Cn2nc(C(F)(F)F)c3c2C(F)(F)[C@@H]2C[C@H]32)n1)S(C)(=O)=O [LEN, Lenacapavir]",ISR cumulative incidence: Erythema,"[1]; 15 mg/kg SC, Dose 1",3/3
same,ISR cumulative incidence: Hyperkeratosis,"[1]; 15 mg/kg SC, Dose 1",2/3
same,ISR cumulative incidence: Nodule,"[1]; 15 mg/kg SC, Dose 1",3/3
same,ISR cumulative incidence: Ulceration,"[1]; 15 mg/kg SC, Dose 1",0/3
same,ISR cumulative incidence: Erythema,"[1]; 15 mg/kg SC, Dose 2",0/3
same,ISR cumulative incidence: Hyperkeratosis,"[1]; 15 mg/kg SC, Dose 2",0/3
same,ISR cumulative incidence: Nodule,"[1]; 15 mg/kg SC, Dose 2",1/3
same,ISR cumulative incidence: Ulceration,"[1]; 15 mg/kg SC, Dose 2",0/3
same,ISR cumulative incidence: Erythema,"[1]; 25 mg/kg SC, Dose 1",0/3
same,ISR cumulative incidence: Hyperkeratosis,"[1]; 25 mg/kg SC, Dose 1",2/3
same,ISR cumulative incidence: Nodule,"[1]; 25 mg/kg SC, Dose 1",3/3
same,ISR cumulative incidence: Ulceration,"[1]; 25 mg/kg SC, Dose 1",2/3
same,ISR cumulative incidence: Erythema,"[1]; 50 mg/kg SC, Dose 1",0/3
same,ISR cumulative incidence: Hyperkeratosis,"[1]; 50 mg/kg SC, Dose 1",0/3
same,ISR cumulative incidence: Nodule,"[1]; 50 mg/kg SC, Dose 1",3/3
same,ISR cumulative incidence: Ulceration,"[1]; 50 mg/kg SC, Dose 1",1/3
same,ISR cumulative incidence: Erythema,"[1]; 50 mg/kg SC, Dose 2",0/3
same,ISR cumulative incidence: Hyperkeratosis,"[1]; 50 mg/kg SC, Dose 2",2/3
same,ISR cumulative incidence: Nodule,"[1]; 50 mg/kg SC, Dose 2",3/3
same,ISR cumulative incidence: Ulceration,"[1]; 50 mg/kg SC, Dose 2",2/3
same,complete blood counts (CBC) and blood serum chemistries,[1]; PTMs that received SC LEN injections,No abnormalities or significant changes
same,"injection site reactions (ISRs), severity",[1]; some animals following some SC LEN injections,Mild to moderate
same,reduced potency against SIVmac239 compared with HIV-1 NL4-3 and stHIV-A19,SIVmac239,approximately 6 fold
same,EC50,"SIVmac239; Simian immunodeficiency virus, 168 h, supernatant vRNA 7 days post-infection, mean ± SD of three independent experiments, read-out: mean EC50 against SIVmac239",502 pM
